Patent EP4628074A1, “N-PALMITOYLETHANOLAMIDE FOR USE IN COMBINATION WITH A NON-STEROIDAL ANTI-INFLAMMATORY DRUG IN THE TREATMENT OF INFLAMMATORY PAIN” (priority 2024, dated 2025)

How the values were obtained:
[1] = tested on: collagen-induced arthritis; test: Arthritis severity score in collagen-induced arthritis (CIA) (Experiment 2); type: in vivo, Female Lewis rats; settings: PEA 30 mg/kg; for Pr > F: 2x2 factor analysis on severity of arthritis, ibuprofen 5 mg/kg, PEA*IBU = interaction (synergy)
Protocol: Rheumatoid arthritis is a disease characterized by inflammatory pain, in which the involved joints present swelling, stiffness and often erosive processes. Female Lewis rats were maintained on a 12/12 hour light/dark cycle, at constant temperature and humidity and acclimated for 1 week, with free access to water and standard diet. […] Arthritis score, change in paw volume (mL), and change in body weight (g) were measured as indicators of inflammatory pain. Arthritis severity was measured every other day starting on day 25, using the following score: 0 = no sign of arthritis; 1 = swelling and/or redness of the paw or toe; 2 = two joints involved; 3 = more than two joints involved; and 4 = severe arthritis of the entire paw and toes. The arthritis index for each subject was calculated by adding the four scores of the individual paws. The change in paw volume compared to day 21 was assessed every two days by plethysmometry (Ugo Basile) starting from day 25. The change in weight was measured for each animal on day 21 and then every two days starting from day 25.
The chosen inflammatory pain indicators were analyzed via Generalized Linear Model (GLM) followed by post-hoc analysis based on Tukey-Kramer correction for multiple comparisons. […] All analyzes were performed using SAS software, version 9.4 (SAS Institute, Cary, NC, USA). P value < 0.05 was considered significant.

[2] = tested on: inflammatory pain induced by CFA; test: Incapacitance test (spontaneous pain), CFA-induced inflammatory pain, chronic (14 days) oral treatment (Experiment 4); type: in vivo, male Sprague-Dawley rats; settings: 2x2 ANOVA on percentage inhibition of spontaneous pain, interaction line = synergy
Protocol: The inflammatory pain model was induced by injecting Complete Freund's Adjuvant (CFA, Sigma-Aldrich) into the tibiotarsal joint of male Sprague-Dawley rats (Charles River), housed in 26x41 cm cages at the Animal Husbandry Centre. Laboratory Animals (Ce.S.A.L.) of the University of Florence with a 12-hour circadian cycle, water and food (standard diet) "ad libitum", temperature of 23±1°C. Intra-articular injection occurred according to the method described by Butler et al. (Pain 48:73-81,1992) after light anesthesia with 2% isoflurane. The skin surrounding the injection site was sterilized with 75% ethyl alcohol. Then a 28-gauge needle was inserted into the joint cavity, through which a volume of 50 µl of CFA was injected. The animals were then divided into the following treatment groups (N = 8): • Sham (control, a volume of physiological solution equal to that used for CFA animals was injected into the tibiotarsal joint) • Vehicle (CMC 1%) • Diclofenac (3 mg/kg) • Diclofenac (30 mg/kg) • PEA (10 mg/kg) • PEA-OXA (10 mg/kg) [formula] [formula] [formula] [formula]
The tested molecules - used both individually and in combination - were suspended in 1% CMC and administered orally daily from day 1 to day 14 (chronic treatment). […] Behavioral tests were conducted 24 hours after the last administration, in order to highlight the effect of repeated treatment on joint pain. Inflammatory pain induced by CFA injection was measured by paw pressure test. […] The nociceptive threshold has been expressed as the force to which the animal reacts by retracting its paw or vocalizing (Leighton et al., Br J Pharmacol 93:553-560,1988). An analgesimeter (Ugo Basile, Varese) was used for this purpose, which allows the mechanical hyperalgesia to be quantified. Furthermore, spontaneous pain was assessed using the incapacitance test, which evaluates variations in postural balance through the "Incapacitance" device (Linton Instrumentation, UK), a scale which simultaneously, but separately, measures the force imparted by each paw (Fernandes et al., Arthritis Res Ther. 2016 Jan 11;18:7).
Briefly, rats were trained to stand on their hind legs in a box with an inclined plane (65° to the horizontal), placed above the "Incapacity" apparatus. […] The results were expressed in terms of "painful potency", defined as percentage inhibition (mean ± SEM) of inflammatory pain induced by CFA and calculated according to the formula: 100* (treatm-VEIC)/(CTRL-VEIC)."
The effect on pain was analyzed using Generalized Linear Model (GLM) followed by post-hoc analysis based on Tukey-Kramer correction for multiple comparisons. The results of the analyses were expressed as mean ± standard error of the mean (SEM). […]

CCCCCCCCCCCCCCCC(=O)NCCO [PEA, N-palmitoylethanolamide]
Pr > F ([1]; Giorno 33): <0,0001
Pr > F ([1]; Giorno 35): <0,0001
effect on arthritis score ([1]; day 31 up to end of study (day 35), oral from day 25, low-dose IBU 5 mg/kg, high-dose IBU 30 mg/kg): had no effect
Pr > F ([2]; PEA 5 mg/kg + diclofenac 3 mg/kg compared with diclofenac 3 mg/kg and PEA 10 mg/kg alone): <0,0001
Pr > F ([2]; PEA 10 mg/kg, diclofenac 3 mg/kg): 0,0084
